Reference: patent US20230293628A1, “MEANS AND METHODS FOR TREATING BACTERIAL INFECTIONS” (priority 2016, published 2023)
Converted amounts (≈) assume the structure as drawn. Like-named read-outs stand apart in the source and are kept apart here. Where no end group is shown, it is not given here.

What was measured:
[1] = test system: Escherichia coli ESBL (CUN E20)
[2] = test system: open wound with wound infections (Staphylococcus aureus, Parvimonas micra, β-hemolysing Streptococcus, Pseudomonas aeruginosa); assay: Healing attempt, infected open wound of a patient, topical salve; assay type: in vivo; conditions: for Effect on wound: topical
Excerpt: A patient had—due to a cured tumor in the back—an open wound (see picture at t=0). […] Therefore, a conservative wound treatment was initiated. The wound's localization required the involvement of an ambulant nursing service who took over the daily care. Nevertheless, in sporadic intervals, wound infections occurred which inhibited the healing process. […] Over 6 years, all therapeutical approaches with different antibiotics and topically applied salve formulations failed. In November 2014 the patient was informed about the possibility of a, healing attempt′, to which they agreed. […] This therapeutically effect can be explained only from the use of the Aspidasept® salve, since all other parameters were not changed. The wound is now completely closed.

[3] = test system: M. tuberculosis-induced TNF formation of human peripheral blood mononuclear cells; assay: M. tuberculosis supernatant-induced TNFα formation in human mononuclear cells (ELISA); assay type: cell-based; conditions: for Inhibition of M. tuberculosis-induced TNF formation (in words): FIG. 5
[4] = test system: monocyte-derived dendritic cells (MoDCs); assay: LPS-stimulated monocyte-derived dendritic cells: maturation, migration, IL-6; assay type: cell-based
Excerpt: In monocyte-derived dendritic cells (MoDCs), Pep19-2.5 inhibited LPS-mediated upregulation of the maturation marker CD83 and the co-stimulatory molecule CD80 at a peptide:LPS weight ratio of 1000:1.
(§1) The potential of Peptide 19-2.5 and the structurally related compound Peptide 19-4LF has been investigated for their therapeutic application in bacterial skin infections. Primary human keratinocytes responded to TLR2 (FSL-1) but not TLR4 (LPS) activation by increased IL-8 production which was determined with ELISA. […] To detect phosphorylation of the intracellular proteins Western Blot was performed. Gene expression was evaluated by quantitative real-time PCR. […] In addition to acute inflammation, bacterial infections often result in impaired wound healing. Since re-epithelialization is a critical step in wound repair, we tested whether Peptide 19-2.5 affects keratinocyte migration.

[5] = test system: TLR2/6-activated keratinocytes; assay: FSL-1 (TLR2/6)-activated keratinocytes: IL-8 ELISA, Western Blot, real-time PCR; assay type: cell-based, human; conditions: FSL-1 stimulation, 10:1 weight ratio
Experimental: Thus, the effect of Pep19-2.5 and Pep19-4LF on the toxin (pathogenicity factor) FSL-1 (fibroblast-stimulating lipopeptide), a TLR-2/6 activating compound, was checked.
as §1

[6] = test system: keratinocyte migration; assay: Scratch assay, keratinocyte migration; assay type: cell-based
Experimental: as §1

[7] = test system: Pseudomonas aeruginosa biofilm; assay: Inactivation of biofilm from Pseudomonas aeruginosa with GFP-labelled bacteria; assay type: cell-based; conditions: short-time treatment (1 h), FIG. 2
Experimental: FIG. 2: Inactivation of a biofilm from Pseudomonas aeruginosa with GFP-labelled bacteria (GFP: Green-Fluorescent Protein). Living bacteria: white, inactivated bacteria: dark.
The micrographics shown that only a small fraction of the surface was covered by live bacteria forming a biofilm after 1 h (B) compared with the untreated one (A).

[8] = test system: Pseudomonas aeruginosa PS4; assay: CDC Biofilm Reactor, inhibition of biofilm formation; assay type: cell-based; conditions: with and without levofloxacin, 24 hours treatment, FIG. 8
Experimental: The data shown in FIG. 8 were obtained in experiments carried out using the Center for Disease Control (CDC) Biofilm Reactor (CBR). In this case, clinical strain Pseudomonas aeruginosa PS4 was incubated in TSB under continuous shaking for 24 hours, followed by additional 24 hours growth with a flow of diluted TSB. Samples received treatments during another 24 hours dissolved at Phosphate Buffer at 37° C. Biofilms were scraped and serially diluted prior to plating and counting. For confocal microscopy, Biofilms were stained using Live/Death BacLight (Life technologies, Carlsbad, California, USA).

CO/N=C(\C(=O)N[C@@H]1C(=O)N2C(C(=O)O)=C(CSc3nc(=O)c(O)nn3C)CS[C@H]12)c1csc(N)n1 [Ceftriaxon, Ceftriaxone, reference compound]
MIC ([1]; individual agents, Mueller-Hinton medium): 16 µg/mL (≈ 28.9 µM)

N=C(N)NCCC[C@H](NC(=O)[C@H](Cc1ccc(O)cc1)NC(=O)[C@H](CCCCN)NC(=O)[C@H](CCCCN)NC(=O)[C@H](CS)NC(=O)CN)C(=O)N[C@@H](CCCNC(=N)N)C(=O)N[C@@H](Cc1ccccc1)C(=O)N[C@@H](CCCNC(=N)N)C(=O)N[C@@H](Cc1c[nH]c2ccccc12)C(=O)N[C@@H](CCCCN)C(=O)N[C@@H](Cc1ccccc1)C(=O)N[C@@H](CCCCN)C(=O)NCC(=O)N[C@@H](CCCCN)C(=O)N[C@@H](Cc1ccccc1)C(=O)N[C@@H](Cc1c[nH]c2ccccc12)C(=O)N[C@@H](Cc1ccccc1)C(=O)N[C@@H](Cc1c[nH]c2ccccc12)C(=O)NCC(=O)O [Peptide 19-2.5]
Effect on wound ([2]; 0.1% in salve (DAC-base cream)): no effect
Reduction of the diameter of the wound ([2]; 1% in salve, after 2 months): 50%
Wound healing ([2]; 1% in salve, after 6 months): completely healed
Effect on wound ([2]; 1% in salve): significant effect
Inhibition of TNFα formation ([3]; 10 μg/ml peptide): more than 50%
Inhibition of M. tuberculosis-induced TNF formation (in words) [3]: Does dependent inhibition
Inhibition of M. tuberculosis-induced TNF formation (in words) ([3]; listed as Pep19-2.5): strongest anti-TNFα activity
LPS-induced migration of MoDCs and CCR7 gene expression ([4]; FIG. 6): completely blocked
LPS-mediated upregulation of maturation marker CD83 and co-stimulatory molecule CD80 ([4]; peptide:LPS weight ratio of 1000:1): inhibited
IL-8 release / IL-8 inducing activity of FSL-1 [5]: reduce IL-8 release
Concentration promoting cell migration and accelerating artificial wound closure (as low as) [6]: 1 ng/mL
Potency in promoting cell migration relative to TGF-β [6]: equipotent to TGF-β
MIC ([1]; ESBL (CUN E20)): 128 µg/mL (≈ 47.2 µM)

GKKYRRFRWKFKGKLFLFG [Peptide 19-4LF, GKKYRRFRWKFKGKLFLFG]
Inactivation of biofilm bacteria [7]: most bacteria are inactivated
Inhibition of biofilm formation [8]: Inhibition of biofilm formation
IL-8 release / IL-8 inducing activity of FSL-1 [5]: reduce IL-8 release
MIC ([1]; ESBL (CUN E20)): 16 µg/mL
